Results on 50 molecules are retold here after US20200385396A1, “Compond for treatment or prevention of obesity or diseases related to obesity, and application thereof” (SHANGHAI INSTITUTES FOR BIOLOGICAL SCIENCES, CHINESE …, priority 2017, published 2020).

Molecules are shown by their SMILES.

One series can be described thus: Solubility (Table C). As to conditions: solvent named in Table C. In kind it is physicochemical.
A further series deals with mice. As to the kind of experiment: Inhibition of food intake in mice by HLY72/HLY78 derivatives. In kind it is in vivo, mouse. To be noted: for inhibition of food intake in mice / activity compared with HLY72: intraperitoneal, 75 umol/kg; for activity compared with HLY72 / activity relative to Hly72 / effective concentration (EC50) relative to HLY72: food intake; for activity relative to Hly72 / effective concentration (EC50) relative to HLY72: compounds 7.5 umol/kg vs Hly72 75 umol/kg; for effective concentration (EC50) relative to HLY72: 5-6 mice per group. The method, then:
All compounds are injected intraperitoneally with a concentration of 75 umol/kg (20 mg/kg of Hly72 equals 75 umol/kg). One-way ANOVA statistical analysis, *: P<0.05, **: P⋅<0.01, ***: P<0.001.
All compounds are injected intraperitoneally at a concentration of 75 umol/kg (20 mg/kg of Hly72 equals 75 umol/kg). One-way ANOVA statistics Analysis, *: P<0.05, **: P⋅<0.01, ***: P<0.001.
Intraperitoneal injection of Hly72 at a concentration of 75 umol/kg (20 mg/kg of Hly72 equals 75 umol/kg), Hgsy-98, Hybj-12a, Hybj-13a are all 7.5 umol/kg. One-way ANOVA statistical analysis, *: P<0.05, **: P⋅<0.01, ***: P<0.001.
The next question we are very concerned about is whether HLY78 has similar functions to NUCB2 protein in mice. Up to now, the most classic function reported for NUCB2 protein is to reduce the food intake of mice at night. Therefore, the experiment was designed: 20 mg/kg of HLY78 was injected intraperitoneally within two hours before turning off the lights at night, and then the food intake of the mice was measured at different time points (0-3 h, 0-6 h, 0-12 h, 0-24 h). […] During the three days of the adaptive injection period before HLY78 injection, both groups of mice were injected with DMSO. On the day of injection of HLY78 and the two days before the injection of DMSO, the body weight of the two groups of mice is also the same (FIG. 2b). […]
Experimental methods were the same as in Examples 2 and 4.
Three compounds of Hgsy-98, Hybj-12a and Hybj-13a were selected for re-experiment (5-6 mice per group).

As for `CCCCn1c(=O)c2cc(OC)c(OC)cc2c2cccc(CO)c21` [Hgsy-43], in “Solubility (Table C)”, the Solubility entry is reported as “DMSO”.
With `Cc1cccc2c1N(C)Cc1cc(O)ccc1-2` [Hcj16], the “inhibition of food intake in mice” value with mice is listed as “obvious effects”. In the series “Solubility (Table C)”, the Solubility entry is “DMSO”.
As to `CCCn1c(=O)c2cc(OC)ccc2c2cccc(C(C)O)c21` (centres unmarked) [Hgsy-64], the Solubility result in the series “Solubility (Table C)” is “DMSO”.
Regarding `COc1cc2c(cc1OC)-c1cccc(C(C)O)c1N(C)C2` (centres unmarked) [Hgsy-59], in the series “Solubility (Table C)”, the Solubility entry was “DMSO”.
Turning to `COc1cc2c(=O)n(C)c3c(OC)cccc3c2cc1OC` [Hgsy-35], the “inhibition of food intake in mice” value in the series on mice is reported as “obvious effects”. The Solubility result in “Solubility (Table C)” was “DMSO”.
For the molecule `CCN1Cc2cc(O)ccc2-c2cccc(C)c21` [Hcj36], the Solubility entry in “Solubility (Table C)” was “DMSO”.
Consider `CCCCn1c(=O)c2cc(OC)c(OC)cc2c2cccc(C(C)O)c21` (centres unmarked) [Hgsy-53], for which the Solubility result in the series “Solubility (Table C)” is “DMSO”.
Regarding `COc1cc2c(=O)n(C)c3c(C(C)O)cccc3c2cc1OC` (centres unmarked) [Hgsy-56], the Solubility result in “Solubility (Table C)” is reported as “DMSO”.
`C=Cc1cccc2c1N(CCCCCCCCCCCCCCCCCC)Cc1cc3c(cc1-2)OCO3` [Hyb-17a]: in the series on mice, the “activity compared with HLY72” value was “significantly better” and the “inhibition of food intake in mice” value was “obvious effects”. In the series “Solubility (Table C)”, the Solubility entry is “DMSO”.
Regarding `CCCCn1c(=O)c2cc(OC)c(OC)cc2c2cccc(C=O)c21` [Hgsy-50], in the series on mice, the “activity compared with HLY72” value is on record as “significantly better” and the “inhibition of food intake in mice” value is “obvious effects”. In the series “Solubility (Table C)”, the Solubility result is “DMSO”.
For `CCn1c(=O)c2cc(OC)c(OC)cc2c2cccc(C3OCCO3)c21` [Hgsy-69], the Solubility entry in the series “Solubility (Table C)” is given as “DMSO”.
For `C=Cc1cccc2c1N(CCCCCCCCCC)Cc1cc3c(cc1-2)OCO3` [Hyj-12a], in the series on mice, the “activity compared with HLY72” value is “significantly better”, the “activity relative to Hly72” value is 30-40 times, the “effective concentration (EC50) relative to HLY72” value was “one tenth” and the “inhibition of food intake in mice” value is given as “obvious effects”. Moreover, the Solubility entry in the series “Solubility (Table C)” was “DMSO”.
Turning to `C#CCOc1cc2c(cc1OCC#C)-c1cccc(C)c1N(CC)C2` [Hcj46-d], the Solubility entry in the series “Solubility (Table C)” was “DMSO”.
Turning to `C/C=C/c1cccc2c1N(C)Cc1cc(OC)c(OC)cc1-2` [Hgsy-78], in the series with mice, the “inhibition of food intake in mice” value is listed as “obvious effects”. Besides, the Solubility entry in “Solubility (Table C)” is on record as “DMSO”.
As for `CCN1Cc2cc(OC)c(OC)cc2-c2cccc(CO)c21` [Hgsy-48], the Solubility entry in the series “Solubility (Table C)” was “DMSO”.
Regarding `C#CCOc1ccc2c(c1)CN(C)c1c(C)cccc1-2` [Hcj16d-a], in “Solubility (Table C)”, the Solubility result is on record as “DMSO”.
`C=Cc1cccc2c1N(C)Cc1cc(OCC)c(OCC)cc1-2` [Hybj-2a]: in the series on mice, the “inhibition of food intake in mice” value was “obvious effects”.
Turning to `CCn1c(=O)c2cc(OC)ccc2c2cccc(OC)c21` [Hgsy-32], the Solubility entry in the series “Solubility (Table C)” is given as “DMSO”.
Take `CCc1cccc2c1N(C)Cc1cc(OC)ccc1-2` [Hcj12]: in the series with mice, the “inhibition of food intake in mice” value is given as “obvious effects”. Further, the Solubility entry in the series “Solubility (Table C)” is “DMSO”.
As to `CCCCN1Cc2cc(OC)c(OC)cc2-c2cccc(CO)c21` [Hgsy-44], in “Solubility (Table C)”, the Solubility entry was “DMSO”.
As for `C/C=C/c1cccc2c3cc(OC)c(OC)cc3c(=O)n(CCCC)c12` [Hgsy-80], in the series on mice, the “activity compared with HLY72” value is “significantly better” and the “inhibition of food intake in mice” value is listed as “obvious effects”. Besides, the Solubility result in the series “Solubility (Table C)” was “DMSO”.
`CCn1c(=O)c2cc(OC)ccc2c2cccc(C(C)O)c21` (centres unmarked) [Hgsy-62]: the Solubility result in “Solubility (Table C)” is listed as “DMSO”.
With `CCN1Cc2cc(O)c(OC)cc2-c2cccc(C)c21` [Hcj44-d], in the series “Solubility (Table C)”, the Solubility entry is on record as “DMSO”.
In the case of `CCn1c(=O)c2cc(OC)c(OC)cc2c2cccc(C=O)c21` [Hgsy-51], the Solubility result in “Solubility (Table C)” is recorded as “DMSO”.
The same measure, in the same setting: as for `COc1cc2c(cc1OC)-c1cccc(OC)c1N(C)C2` [Hgsy-60], the entry is “DMSO”; as for `C=CC(O)c1cccc2c3cc(OC)c(OC)cc3c(=O)n(CC)c12` (centres unmarked) [Hgsy-25], “DMSO”.
Regarding `C=Cc1cccc2c1N(CCCCCCCCCCCC)Cc1cc3c(cc1-2)OCO3` [Hybj-13a], in the series on mice, the “activity compared with HLY72” value is reported as “significantly better”, the “activity relative to Hly72” value is listed as “about 10 times”, the “effective concentration (EC50) relative to HLY72” value was “one tenth” and the “inhibition of food intake in mice” value is on record as “obvious effects”. Besides, in the series “Solubility (Table C)”, the Solubility entry is given as “DMSO”.
As to `C=CC(O)c1cccc2c3ccc(OC)cc3c(=O)n(CC)c12` (centres unmarked) [Hgsy-3], the Solubility entry in the series “Solubility (Table C)” was “DMSO”.
As to `C/C=C/c1cccc2c3ccc(OC)cc3c(=O)n(CCCC)c12` [Hgsy-97], the Solubility entry in “Solubility (Table C)” is reported as “DMSO”.
Consider `Cc1cccc2c1N(C)Cc1cc(OCc3cc4cc(Cl)ccc4s3)ccc1-2` [Hcj194-d], for which the “inhibition of food intake in mice” value in the series on mice is “obvious effects”. Also, in the series “Solubility (Table C)”, the Solubility result is “DMSO”.
`CCn1c(=O)c2cc(OC)c(OC)cc2c2cccc(CO)c21` [Hgsy-36]: in the series on mice, the “inhibition of food intake in mice” value is given as “obvious effects”. Besides, the Solubility entry in “Solubility (Table C)” was “DMSO”.
Turning to `C/C=C/c1cccc2c1N(C)Cc1cc(OC)ccc1-2` [Hgsy-92-1], the “inhibition of food intake in mice” value in the series with mice was “obvious effects”. The Solubility entry in “Solubility (Table C)” was “DMSO”.
With `C=Cc1cccc2c3ccc(OC)cc3c(=O)n(CC)c12` [Hgsy-67], the Solubility result in “Solubility (Table C)” is “DMSO”.
Turning to `C=Cc1cccc2c1N(C)Cc1cc(OC)c(OC)cc1-2` [Hybj-1a], in the series with mice, the “inhibition of food intake in mice” value is on record as “obvious effects”. The Solubility entry in the series “Solubility (Table C)” is “DMSO”.
For `C/C=C/c1cccc2c1N(CCCC)Cc1cc(OC)ccc1-2` [Hgsy-98], in the series on mice, the “activity compared with HLY72” value was “significantly better”, the “activity relative to Hly72” value is listed as “about 10 times” and the “effective concentration (EC50) relative to HLY72” value is “one tenth”. Also, in the series “Solubility (Table C)”, the Solubility result was “DMSO”.
`COc1cc2c(=O)n(C)c3c(C(C)=O)cccc3c2cc1OC` [Hgsy-57]: in the series “Solubility (Table C)”, the Solubility entry was “DMSO”.
Turning to `C/C=C/c1cccc2c3ccc(OC)cc3c(=O)n(C)c12` [Hgsy-89], in “Solubility (Table C)”, the Solubility result was “DMSO”.
Consider `CCCCN1Cc2cc(OC)c(OC)cc2-c2cccc(C(C)O)c21` (centres unmarked) [Hgsy-55], for which, in the series “Solubility (Table C)”, the Solubility result was “DMSO”.
For `CCCN1Cc2cc(OC)ccc2-c2cccc(C(C)O)c21` (centres unmarked) [Hgsy-66], the Solubility entry in the series “Solubility (Table C)” is “DMSO”.
`CCN1Cc2cc(OC)c(OC)cc2-c2cccc(COC(C)=O)c21` [Hgsy-47]: in “Solubility (Table C)”, the Solubility result is listed as “DMSO”.
As for `C=Cc1cccc2c3cc(OC)c(OC)cc3c(=O)n(C)c12` [Hgsy-58], in “Solubility (Table C)”, the Solubility result is “DMSO”.
For the molecule `C/C=C/c1cccc2c1N(CCCC)Cc1cc(OC)c(OC)cc1-2` [Hgsy-86], the “inhibition of food intake in mice” value in the series on mice was “obvious effects”. In addition, in “Solubility (Table C)”, the Solubility result is “DMSO”.
For `C=Cc1cccc2c1N(C)Cc1cc(OCCCC)c(OCCCC)cc1-2` [Hybj-3a], in the series with mice, the “inhibition of food intake in mice” value is on record as “obvious effects”.
As to `C=Cc1cccc2c1N(CCCCCC)Cc1cc3c(cc1-2)OCO3` [Hybj-9a], the “inhibition of food intake in mice” value in the series with mice is “obvious effects”. Moreover, in “Solubility (Table C)”, the Solubility entry is “DMSO”.
Consider `COc1ccc2c(c1)CN(C)c1c(C)cccc1-2` [Hcj15], for which the Solubility result in the series “Solubility (Table C)” is given as “DMSO”.
Take `Cc1cccc2c1N(C)Cc1cc(OCc3cc(C)n(C)n3)ccc1-2` [Hcj221d]: the Solubility entry in the series “Solubility (Table C)” is “DMSO”.
Regarding `C=Cc1cccc2c3ccc(OC)cc3c(=O)n(CCC)c12` [Hgsy-68], in “Solubility (Table C)”, the Solubility result is recorded as “DMSO”.
On the same count and under the same terms, the result for `C/C=C/c1cccc2c3cc(OC)c(OC)cc3c(=O)n(C)c12` [Hgsy-75] reads “DMSO”; that for `CCn1c(=O)c2cc(OC)ccc2c2cccc(CO)c21` [Hgsy-31], “DMSO”; that for `COc1cc2c(cc1OC)-c1cccc(C)c1NC2` [Hcj92-a], “DMSO”.
